What was measured:
[1] = system: advanced pancreatic cancer; conditions: people with advanced pancreatic cancer; cited from earlier work
fibroblast cells = test: Immunofluorescence of XRN2 and R loop (S9.6) foci after UV treatment; type: cell-based, human; conditions: UV (20 J/m^2) + a-amanitin; FIG. 17D
Text: FIGS. 10A-D. XRN2 is a DNA damage response (DDR) factor. (FIG. 10A) To interrogate potential in vivo XRN2-interacting partners, exponentially growing HeLa cells were collected and lysed for FPLC analyses. Individual fractions were separated by SDS-PAGE and western blot techniques used to probe for indicated proteins. (FIG. 10B) Interactions between XRN2 and the DNA damage regulators Ku80, 53BP1, and BRCA1 were interrogated by immunoprecipitation (IP). (FIG. 10C) Sub-cellular XRN2 localization was quantitated in shScr and […] cells in mock-, IR (1 Gy), and UV (20 J/m^2) fibroblast cells. (FIG. 10D) Sub-cellular XRN2 localization and S9.6 foci was visualized in mock-, UV (20 J/m^2)-, or UV (20 J/m^2)+a amanitin (a-aman)-treated shScr and shXRN2 fibroblast cells by IF. (*p<0.05).
FIGS. 17A-D. XRN2 undergoes transcription-dependent nuclear re-distribution in response to IR and UV. (FIGS. 17A-D) Sub-cellular localization of XRN2 was monitored in fibroblast cells either after (FIG. 17A) mock, (FIG. 17B) IR (1Gy), (FIG. 17C) UV (20 J/m^2), or (FIG. 17D) UV (20 J/m^2)+a-amanitin treated cells by IF.
To visualize 53BP1, XRN2, and γ-H2AX, cells were plated, grown to ˜70% confluency on glass coverslips and either mock- or IR-treated. […] Visualization was performed using a 100× oil objective lens with fluorescence on a Nikon microscope. For each experiment 100 cells were counted. […]

[2] = system: shXRN2 human fibroblast cells; test: Immunofluorescence of basal 53BP1 foci and R loops in shXRN2 versus shScr cells; type: cell-based
Protocol: FIGS. 24A-C. DSBs formed in XRN2 deficient cells are dependent on active transcription and R-loop formation. (FIGS. 24A-B) Levels of 53BP1 were monitored in shXRN2 and compared to shScr human fibroblast cells after exposure to mock-, a-amanitin-, or GFP- or RNaseH-transfection treatments by IF. (FIG. 24C) Levels of R loops or 53BP1 were monitored in mock- or a-amanitin-treated shXRN2 cells by IF.
To visualize 53BP1, XRN2, and γ-H2AX, cells were plated, grown to ˜70% confluency on glass coverslips and either mock- or IR-treated. Cells were then washed once with PBS, permeabilized and fixed in methanol/acetone (70/30, v/v). To visualize ATM pS 1981 and Mre11 cells were fixed in 3% paraformaldehyde/2% sucrose PBS solution for 10 min at room temperature (RT). Fixation was followed by permeabilization on ice with a 0.5% Triton X-100 buffer (0.5% Triton X-100, 20 mM HEPES, pH 7.4, 50 mM NaCl, 3 mM MgCl, and 300 mM sucrose). […] Visualization was performed using a 100× oil objective lens with fluorescence on a Nikon microscope. For each experiment 100 cells were counted.
To determine how transcription and R-loop formation contributed to the DNA damage observed in shXRN2 cells, the inventors treated shScr and shXRN2 cells with a-amanitin or transfected each cell line with GFP control or GFP-RNaseH expression plasmids to remove R-loops and measured the number of 53BP1 foci.

shXRN2 cells = test: Regression of 53BP1 foci/nucleus after IR exposure (DNA repair kinetics); type: cell-based; conditions: IR (1 Gy); treatment prior to IR; FIGS. 15B-C
Text: FIGS. 15A-C. R loop formation and transcription contribute to delayed DSB repair kinetics in XRN2-deficient cells. (FIG. 15A) Levels of R loops were monitored in mock- or IR (1 Gy)-exposed shXRN2 compared to shScr MDA-MB-231 breast cancer cells by IF. (FIGS. 15B-C) Regression of 53BP1 foci/nucleus was monitored in mock- or IR (1 Gy)-treated shXRN2 compared to shScr cells that were exposed to a-amanitin or GFP- or GFP-RNaseH transfection at the indicated times by IF. (*p<0.05).
To visualize 53BP1, XRN2, and γ-H2AX, cells were plated, grown to ˜70% confluency on glass coverslips and either mock- or IR-treated. […] Visualization was performed using a 100× oil objective lens with fluorescence on a Nikon microscope. For each experiment 100 cells were counted.
Since the loss of XRN2 sensitized cells to IR treatment (FIG. 12A), the inventors examined the effects of IR on R-loop formation in shXRN2 cells. Because R-loops can directly lead to DSBs, they examined whether active transcription or R-loop formation directly affected DNA repair (regression of 53BP1 foci) after IR treatment. shScr or shXRN2 cells were treated or not with a-amanitin or transfected with GFP- or GFP-RNaseH expression plasmids prior to IR exposure and 53BP1 foci/nuclei regression kinetics were assessed at various times after IR exposure.

[3] = system: cells with transient siRNA-mediated loss of XRN2; test: Colony forming assay, PARP inhibition with transient siRNA-mediated loss of XRN2; type: cell-based; conditions: FIG. 8C, p<0.05
Protocol: FIGS. 8A-C. XRN2 depletion sensitizes cells to genetic knockdown and chemical inhibition of PARP1. […] (FIG. 8B) Loss of XRN2 and PARP1 by transient siRNA knockdown together inhibits cellular growth and survival; black column—shSCR; white column—shXRN2.
shScr and shXRN2 cells were plated onto 60 mm tissue culture plates and allowed to grow for two days. […] Colonies with >50 normal appearing cells were counted and percent survival calculated and graphed with dose.

[4] = system: XRN2 deficient cells, fibroblast or MDA-MB-231 cells; test: Colony forming ability assay in shScr versus shXRN2 cells after genomic insult; type: cell-based, human; conditions: FIGS. 12E-F
Text: (FIGS. 12A-D) shScr versus shXRN2 cells (as indicated in the graph) or cells exposed to si-control (siSCR) versus XRN2 specific siRNA (siXRN2) were either mock-treated or exposed to: (FIGS. 12A-B) ionizing radiation (IR); (FIGS. 12C-D) ultraviolet light (UV). (FIGS. 12E-F) shScr and shXRN2, were either mock-treated or exposed to: (FIG. 12E) H2O2 or (FIG. 12F) Aphidicolin (APH). Cells were then monitored for survival using colony forming ability assays. Colonies of >50 normal-appearing cells were quantified for mock-versus agent-exposed cells. (**p<0.01).
shScr and shXRN2 cells were plated onto 60 mm tissue culture plates and allowed to grow for two days. Cells were then exposed to IR and UV (at various doses as indicated), allowed to grow for 7 days, washed with PBS and stained with crystal violet solution. Colonies with >50 normal appearing cells were counted and percent survival calculated and graphed with dose.

Compound: Nc1ccn([C@@H]2O[C@H](CO)[C@@H](O)C2(F)F)c(=O)n1 [Gemcitabine]
- improvement in median survival duration [1]: 5 week

Compound: a-amanitin
- XRN2 and R loop foci formation after UV treatment (fibroblast cells): failed to form
- R-loop levels in shXRN2 cells ([2]; after a-amanitin treatment, FIG. 24C): decrease in R-loop levels
- 53BP1 foci in shXRN2 cells ([2]; inhibition of transcription, to levels comparable to shScr cells, FIGS. 24A-B): decreased 53BP1 foci
- DNA repair kinetics (regression of 53BP1 foci) after IR exposure in shXRN2 cells (shXRN2 cells): completely restored DNA repair kinetics

Compound: O=C1NCCc2c(OCCCCN3CCCCC3)cccc21 [DPQ]
- effect of PARP activity inhibition on survival in colony forming assays with loss of XRN2 [3]: synthetic lethal

Compound: C[C@@]1(CO)[C@H](O)CC[C@@]2(C)[C@H]1CC[C@H]1C[C@@H]3C[C@@]12CC[C@]3(O)CO [aphidicolin]
- sensitivity of XRN2 deficient cells (colony forming ability after exposure) [4]: hypersensitive

Compound: OO [hydrogen peroxide]
- sensitivity of XRN2 deficient cells (colony forming ability after exposure) [4]: hypersensitive
